Test results reported in patent US20250339462A1, “CANCER TREATMENT USING ULTRA-HIGH CONCENTRATION GASEOUS NITRIC OXIDE AND A CHECKPOINT INHIBITOR” (Beyond Air, Inc., priority 2022, published 2025).

System: CT26 cells
Assay: In vitro UNO exposure of CT26 cells, Annexin V/PI cell death analysis
Assay type: cell-based, mouse
Conditions: 25,000-100,000 ppm for 10 s, 30 s or 1 min; 24 hours following exposure; dosage and time dependent
Procedure: Preparation of cells—Mouse colon carcinoma CT26.WT cells (ATCC number: CRL-2638) were grown to a 70-80% confluency and harvested using trypsin. Following, the cells were centrifuged at 1,200 revolutions per minute (rpm)—241 G for 8 minutes, then the pellet was re-suspended in 1 ml of cell media (RPMI—1640 supplemented with 10% FBS and 1% Pen-Strep). The cells were counted using an automated cell counter and a total of 2×10^6 cells were seeded into each […] containing 9 ml cell media. The plates were then placed for 24 hours in an incubator at 37° C., 5% CO2.
UNO treatment—Following 24 hours of incubation, cell media was removed, and the plate was placed in an acrylic box stationed within an operating chemical fume hood. Prior to the initiation of treatment, the box was exposed to UV for 1 hour to reduce the chances of contamination. The box was closed and sealed with parafilm. A PVC delivery line was placed within a designated hole on the top of the box and lowered until approximately 5 cm within the box. The flowmeter was set to 1 LPM to expose the cells for the durations and concentrations described in Table 3 (control cells were untreated).
Following treatment, 9 ml of cell media were added to each well and the plate was placed for 24 hours in an incubator at 37° C., 5% CO2.
Flow cytometry—Cell media was removed to a 50 ml centrifuge tube. […]

[N]=O [UNO, nitric oxide]
Effect on viability of CT26 cancer cells: reduces viability and induces apoptosis and necrosis
